According to patent US8513232B2, “Substituted spirocyclic piperidine derivatives as histamine-3 (H3) receptor ligands” (Cephalon, Inc., priority 2008, dated 2013):
Read-outs that look alike come from different tables or passages of the source.

Assays:
[1] = target: T1, human H3 receptor (Homo sapiens, UniProt Q9Y5N1); test: Human H3 radioligand binding ([3H]-N-alpha-methylhistamine, SPA)
T1 construct: expressed in transfected cells
In short: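 SPA competition binding on membranes from CHO cells stably expressing human H3 receptor (10 μg protein/well) with ~1 nM [3H]-N-alpha-methylhistamine and compound at 0.01 nM-30 μM. Incubation 4 h at room temperature in 50 mM Tris-HCl pH 7.4, 5 mM MgCl2, 0.1% BSA; non-specific binding defined with 10 μM clobenpropit.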

[2] = target: T2, rat histamine H3 receptor (Rattus norvegicus, UniProt Q9QYN8); test: Rat H3 radioligand binding ([3H]-N-alpha-methylhistamine, SPA)
T2 construct: encoding the entire 445-amino-acid rat histamine H3 receptor; expressed in transfected cells; membrane preparation
T2 sequence (Q9QYN8 whole entry): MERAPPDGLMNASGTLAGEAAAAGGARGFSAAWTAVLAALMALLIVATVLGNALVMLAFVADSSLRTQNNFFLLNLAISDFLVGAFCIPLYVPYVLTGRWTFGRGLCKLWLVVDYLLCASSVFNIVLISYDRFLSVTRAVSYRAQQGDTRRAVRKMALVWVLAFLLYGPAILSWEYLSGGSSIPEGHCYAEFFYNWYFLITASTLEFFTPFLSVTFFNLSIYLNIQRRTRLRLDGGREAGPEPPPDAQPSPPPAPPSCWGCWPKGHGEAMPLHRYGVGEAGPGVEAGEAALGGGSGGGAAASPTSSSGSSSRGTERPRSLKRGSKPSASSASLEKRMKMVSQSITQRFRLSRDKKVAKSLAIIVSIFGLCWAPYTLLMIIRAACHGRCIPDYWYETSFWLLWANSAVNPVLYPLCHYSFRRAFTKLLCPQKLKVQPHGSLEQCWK
In short: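 Membranes from CHO-A3 cells stably expressing full-length rat H3 receptor (10 μg protein/well) incubated 4 h at room temperature, protected from light, with ~1 nM [3H]-N-alpha-methylhistamine and compound (0.01 nM-30 μM) in 50 mM Tris HCl pH 7.4, 5 mM MgCl2, 0.1% BSA. Binding read by SPA; 10 μM clobenpropit defined non-specific binding.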

[3] = Human H3 binding, Table B, Examples 136-362, read-out: hum H3 binding Ki
[4] = Rat H3 binding, Table B, Examples 136-362, read-out: rat H3 binding Ki

T1 sequence (Q9Y5N1 whole entry): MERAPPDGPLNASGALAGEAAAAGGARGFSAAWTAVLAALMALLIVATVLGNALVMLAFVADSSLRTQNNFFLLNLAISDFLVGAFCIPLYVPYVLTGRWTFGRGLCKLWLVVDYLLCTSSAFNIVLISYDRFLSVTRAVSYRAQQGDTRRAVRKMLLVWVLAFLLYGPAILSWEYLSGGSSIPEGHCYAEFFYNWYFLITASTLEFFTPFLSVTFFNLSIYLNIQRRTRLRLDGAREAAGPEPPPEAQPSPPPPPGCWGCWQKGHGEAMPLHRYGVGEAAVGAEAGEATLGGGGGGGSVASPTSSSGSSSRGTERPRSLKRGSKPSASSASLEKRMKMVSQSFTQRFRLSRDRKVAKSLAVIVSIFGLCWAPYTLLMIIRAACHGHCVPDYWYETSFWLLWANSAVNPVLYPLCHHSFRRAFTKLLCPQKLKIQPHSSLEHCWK

Structure (SMILES)	Ki [1, 3] [µM]	Ki [2, 4] [µM]	melting point [°C]	Ki ([2]; Rat H3 binding, Table B, given as numeric bound instead of class symbol, read-out: rat H3 binding Ki) [µM]	Ki [1] [µM]	Ki [2] [µM]
O=C(Nc1ccc2c(c1)COC1(CCN(C3CCC3)CC1)O2)c1cccnc1 [Example 149]	< 0.2	< 0.2	215 to 217			
O=C(Nc1ccc2c(c1)COC1(CCN(C3CCC3)CC1)O2)c1ccncc1 [Example 150]	< 0.2	< 0.2	180 to 182			
CN1CCN(c2ccc3c(c2)OC2(CCN(C4CCC4)CC2)O3)C1=O [Example 151]	< 0.2		186 to 187	> 0.3		
O=C(Nc1ccc2c(c1)COC1(CCN(C3CCC3)CC1)O2)c1ccccn1 [Example 152]	< 0.2	< 0.2	172 to 174			
N#Cc1cccc(C(=O)Nc2ccc3c(c2)COC2(CCN(C4CCC4)CC2)O3)c1 [Example 153]	< 0.2	< 0.2	212 to 215			
N#Cc1ccc(C(=O)Nc2ccc3c(c2)COC2(CCN(C4CCC4)CC2)O3)cc1 [Example 154]	< 0.2	< 0.2	206 to 208			
CC(C)(O)CNC(=O)c1ccc(-c2ccc3c(c2)COC2(CCN(C4CCC4)CC2)O3)cc1 [Example 155]	< 0.2	< 0.2	156 to 158			
CNC(=O)c1ccc(-c2ccc3c(c2)CCC2(CCN(C4CCC4)CC2)O3)cn1 [Example 156]	< 0.2	< 0.2	67 to 69			
N#Cc1ccc(NC(=O)Nc2ccc3c(c2)COC2(CCN(C4CCC4)CC2)O3)cc1 [Example 157]	< 0.2	< 0.2	170 to 172			
c1cc(-c2ccc3c(c2)CCC2(CCN(C4CCC4)CC2)O3)ccc1C1=NCCO1 [Example 158]	< 0.2	< 0.2	213 to 215			
O=C(c1ccccc1Nc1ccc2c(c1)COC1(CCN(C3CCC3)CC1)O2)N1CCOCC1 [Example 159]	< 0.2	0.2 to 1	60 to 63			
CNC(=O)c1ccc(-c2ccc3c(c2)COC2(CCN(C4CCC4)CC2)O3)cn1 [Example 160]	< 0.2	< 0.2	208 to 210			
O=c1oc2ccccc2n1-c1ccc2c(n1)COC1(CCN(C3CCC3)CC1)O2 [Example 161]	< 0.2	0.2 to 1	67 to 70			
O=C(Nc1ccccc1)Nc1ccc2c(c1)COC1(CCN(C3CCC3)CC1)O2 [Example 162]	< 0.2	< 0.2	229 to 231			
O=C(NCCO)c1ccc(-c2ccc3c(c2)COC2(CCN(C4CCC4)CC2)O3)cc1F [Example 163]	< 0.2	< 0.2	166 to 168			
CNC(=O)c1cnc(-c2ccc3c(c2)COC2(CCN(C4CCC4)CC2)O3)s1 [Example 164]	< 0.2	< 0.2	200 to 203			
O=C(Nc1ccc2c(c1)COC1(CCN(C3CCC3)CC1)O2)N1CCOCC1 [Example 165]	< 0.2	0.2 to 1	238 to 240			
CN(C)C(=O)c1ccccc1Nc1ccc2c(c1)COC1(CCN(C3CCC3)CC1)O2 [Example 166]	< 0.2	< 0.2	50 to 53			
Cc1n[nH]c(C)c1-c1ccc2c(c1)CCC1(CCN(C3CCC3)CC1)O2 [Example 167]	< 0.2	< 0.2	86 to 88			
O=c1ccc(-c2ccc3c(c2)COC2(CCN(C4CCC4)CC2)O3)c[nH]1 [Example 168]	< 0.2	< 0.2	145 to 147			
CN(C)C(=O)c1ccc(Nc2ccc3c(c2)COC2(CCN(C4CCC4)CC2)O3)cc1 [Example 169]	< 0.2	< 0.2	66 to 74			
c1ccc(Nc2ccc3c(c2)OC2(CCN(C4CCC4)CC2)O3)cc1 [Example 170]	< 0.2	< 0.2	238 to 240			
Cc1nn(C)c(C)c1-c1ccc2c(c1)CCC1(CCN(C3CCC3)CC1)O2 [Example 171]	< 0.2	< 0.2	47 to 49			
O=C(c1ccc(Nc2ccc3c(c2)COC2(CCN(C4CCC4)CC2)O3)cc1)N1CCOCC1 [Example 172]	< 0.2	< 0.2	79 to 84			
O=C(c1ccc(-c2ccc3c(c2)COC2(CCN(C4CCC4)CC2)O3)cn1)N1CC[C@@H](O)C1 [Example 173]	< 0.2	< 0.2	100 to 101			

Structure (SMILES)	Ki [1, 3] [µM]	Ki [2, 4] [µM]	melting point [°C]	Ki ([2]; Rat H3 binding, Table B, given as numeric bound instead of class symbol, read-out: rat H3 binding Ki) [µM]	Ki [1] [µM]	Ki [2] [µM]
CNC(=O)N1CCN(c2ccc3c(c2)COC2(CCN(C4CCC4)CC2)O3)CC1 [Example 174]	< 0.2	< 0.2	59 to 62			
CNC(=O)c1ccc(-c2ccc3c(c2)CCOC2(CCN(C4CCC4)CC2)O3)cn1 [Example 175]	0.2 to 1	> 1	141 to 142.2			
CNC(=O)c1ccc(-c2ccc3c(c2)COC2(CCN(C4CCC4)CC2)O3)s1 [Example 176]	< 0.2	< 0.2	215 to 219			
CNC(=O)c1cccc(-c2ccc3c(c2)CCOC2(CCN(C4CCC4)CC2)O3)c1 [Example 177]	0.2 to 1	> 1	100.2 to 102.5			
O=C1N(c2ccncc2)CCN1c1ccc2c(c1)COC1(CCN(C3CCC3)CC1)O2 [Example 178]	< 0.2	< 0.2	185 to 189			
CNC(=O)c1ccc(-c2ccc3c(c2)CCOC2(CCN(C4CCC4)CC2)O3)cc1 [Example 180]	0.2 to 1	> 1	155.6 to 157.3			
CNC(=O)NCc1ccc(-c2ccc3c(c2)COC2(CCN(C4CCC4)CC2)O3)cc1 [Example 181]	< 0.2	< 0.2	205 to 206.5			
O=C(c1ccc(-c2ccc3c(c2)CCC2(CCN(C4CCC4)CC2)O3)cc1)N1CC[C@H](O)C1 [Example 182]	< 0.2	< 0.2	193 to 195			
CCCn1cc(-c2ccc3c(c2)CCC2(CCN(C4CCC4)CC2)O3)cn1 [Example 183]	< 0.2	< 0.2	97 to 99			
O=C(Nc1ccc(Cl)cc1)Nc1ccc2c(c1)COC1(CCN(C3CCC3)CC1)O2 [Example 184]	< 0.2	0.2 to 1	201 to 203			
O=C(Nc1cccc(Cl)c1)Nc1ccc2c(c1)COC1(CCN(C3CCC3)CC1)O2 [Example 186]	< 0.2	< 0.2	216 to 217			
CC(C)Cn1cc(-c2ccc3c(c2)CCC2(CCN(C4CCC4)CC2)O3)cn1 [Example 187]	< 0.2	< 0.2	106 to 108			
O=C(Nc1ccc2c(c1)CCC1(CCN(C3CCC3)CC1)O2)c1ccncc1 [Example 188]	< 0.2	< 0.2	65 to 67			
c1ccc(COc2ccc3c(c2)CCC2(CCN(C4CCC4)CC2)O3)cc1 [Example 189]	< 0.2	< 0.2	102 to 103			
OC1CC2(CCN(C3CCC3)CC2)Oc2ccc(OCc3ccccc3)cc21 (stereo not drawn) [Example 190]	< 0.2	0.2 to 1	69 to 71			
CO[C@H]1CCN(C(=O)c2ccc(-c3ccc4c(c3)COC3(CCN(C5CCC5)CC3)O4)cc2)C1 [Example 191]	< 0.2	< 0.2	120 to 121			
O=C(c1ccc(-c2ccc3c(c2)COC2(CCN(C4CCC4)CC2)O3)cc1F)N1CC[C@H](O)C1 [Example 192]	< 0.2	< 0.2	99.5 to 100.5			
COCCNC(=O)c1ccc(-c2ccc3c(c2)CCC2(CCN(C4CCC4)CC2)O3)cc1 [Example 193]	< 0.2	< 0.2	158 to 160			
O=C(c1ccc(-c2ccc3c(c2)CCC2(CCN(C4CCC4)CC2)O3)cc1F)N1CC[C@H](O)C1 [Example 194]	< 0.2	< 0.2	78 to 80			
COCCNC(=O)c1ccc(-c2ccc3c(c2)COC2(CCN(C4CCC4)CC2)O3)cn1 [Example 195]	< 0.2	< 0.2	113 to 114			
Cc1cc(C(=O)Nc2ccc3c(c2)COC2(CCN(C4CCC4)CC2)O3)cc(Cl)n1 [Example 196]	< 0.2	< 0.2	179 to 180			
O=C1CCN(C(=O)c2ccc(-c3ccc4c(c3)CCC3(CCN(C5CCC5)CC3)O4)cc2)CC1 [Example 197]			82.9 to 84.3		< 0.2	< 0.2
OCCn1cc(-c2ccc3c(c2)CCC2(CCN(C4CCC4)CC2)O3)cn1 [Example 198]	< 0.2	< 0.2	101 to 103			
Cc1nn(C)c(C)c1-c1ccc2c(c1)COC1(CCN(C3CCC3)CC1)O2 [Example 199]	< 0.2	< 0.2	140 to 143			
Cc1n[nH]c(C)c1-c1ccc2c(c1)COC1(CCN(C3CCC3)CC1)O2 [Example 200]	< 0.2	< 0.2	110 to 112			
